PubChem BioAssay AID1259411 (Chemical Carcinogenesis Research Information System (CCRIS), 2018)
The source made the active and inactive calls. How the calls were made is not given here.

System: rodent carcinogenicity bioassays, tumor incidence
Assay: CCRIS carcinogenicity studies
Conditions: Dose: 0, Dose: 0
Procedure, shortened: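 Archive of carcinogenicity, mutagenicity, tumor promotion and tumor inhibition results drawn from journals, NCI reports and other sources, expert-reviewed; covers 1985-2011 and is no longer updated.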

COc1ccc(C(=O)/C(Br)=C\C(=O)O)cc1
carcinogen call (Species: MOUSE, Strain/Sex: B6C3F1/FEMALE, Route: INTRAPERITONEAL, 12, 24 MG/KG 3/WK FOR 104 WK (STUDY DURATION: 104-105 WK), 12, 24 MG/KG 3/WK FOR 104 WK (STUDY DURATION: 104-105 WK)): inactive; negative
carcinogen call (Species: MOUSE, Strain/Sex: B6C3F1/MALE, Route: INTRAPERITONEAL, 12, 24 MG/KG 3/WK FOR 104 WK (STUDY DURATION: 104-105 WK), 12, 24 MG/KG 3/WK FOR 104 WK (STUDY DURATION: 104-105 WK)): inactive; negative
carcinogen call (Species: RAT, Strain/Sex: F344/FEMALE, Route: INTRAPERITONEAL, 7, 14 MG/KG 3/WK FOR 104 WK (STUDY DURATION: 104-105 WK), 7, 14 MG/KG 3/WK FOR 104 WK (STUDY DURATION: 104-105 WK), Tumor Site: Type of Lesion: MAMMARY GLAND: FIBROADENOMA): active; positive
carcinogen call (Species: RAT, Strain/Sex: F344/MALE, Route: INTRAPERITONEAL, 7, 14 MG/KG 3/WK FOR 104 WK (STUDY DURATION: 104-105 WK), 7, 14 MG/KG 3/WK FOR 104 WK (STUDY DURATION: 104-105 WK), Tumor Site: Type of Lesion: MULTIPLE SITES: MALIGNANT MESOTHELIOMA, TUNICA VAGINALIS: MESOTHELIOMA): active; positive

C[C@](N)(Cc1ccc(O)c(O)c1)C(=O)O
carcinogen call (Species: MOUSE, Strain/Sex: B6C3F1/FEMALE, Route: ORAL, 6300, 12500 PPM IN FEED FOR 103 WK (STUDY DURATION: 104 WK), 6300, 12500 PPM IN FEED FOR 103 WK (STUDY DURATION: 104 WK)): inactive; negative
carcinogen call (Species: MOUSE, Strain/Sex: B6C3F1/MALE, Route: ORAL, 6300, 12500 PPM IN FEED FOR 103 WK (STUDY DURATION: 104 WK), 6300, 12500 PPM IN FEED FOR 103 WK (STUDY DURATION: 104 WK), Tumor Site: Type of Lesion: KIDNEY: RENAL TUBULAR CELL ADENOMA OR ADENOCARCINOMA): equivocal
carcinogen call (Species: RAT, Strain/Sex: F344/FEMALE, Route: ORAL, 3100, 6300 PPM IN FEED FOR 103 WK (STUDY DURATION: 104 WK), 3100, 6300 PPM IN FEED FOR 103 WK (STUDY DURATION: 104 WK)): inactive; negative
carcinogen call (Species: RAT, Strain/Sex: F344/MALE, Route: ORAL, 3100, 6300 PPM IN FEED FOR 103 WK (STUDY DURATION: 104 WK), 3100, 6300 PPM IN FEED FOR 103 WK (STUDY DURATION: 104 WK)): inactive; negative

O=C1c2ccccc2C(=O)c2ccccc21
carcinogen call (Species: MOUSE, Strain/Sex: B6C3F1/MALE, Route: DIET, 833, 2500, 7500 PPM FOR 2 YR (STUDY DURATION: 2 YRS), 833, 2500, 7500 PPM FOR 2 YR (STUDY DURATION: 2 YRS), Tumor Site: Type of Lesion: LIVER: HEPATOCELLULAR ADENOMA, CARCINOMA OR HEPATOBLASTOMA): active; positive
carcinogen call (Species: RAT, Strain/Sex: F344/N/MALE, Route: DIET, 469, 938, 1875, 3750 PPM FOR 2 YRS (STUDY DURATION: 2YRS), 469, 938, 1875, 3750 PPM FOR 2 YRS (STUDY DURATION: 2YRS), Tumor Site: Type of Lesion: KIDNEY: RENAL TUBULE ADENOMA OR CARCINOMA, LIVER: HEPATOCELLULAR ADENOMA): active; positive
carcinogen call (Species: RAT, Strain/Sex: F344/N/MALE, Route: DIET, 469, 938, 1875, 3750 PPM FOR 2 YRS (STUDY DURATION: 2YRS), 469, 938, 1875, 3750 PPM FOR 2 YRS (STUDY DURATION: 2YRS), Tumor Site: Type of Lesion: KIDNEY: RENAL TUBULE ADENOMA, BLADDER: PAPILLOMA): active; positive; no true dose response, p values = 0.01 in these 2 cases; all others no

CCN(N=O)C(C)=O
carcinogen call (Species: MOUSE, Strain/Sex: BALB/C/MALE, Route: ORAL, 1000, 2000 PPM IN DRINKING WATER FOR 2 WK (STUDY DURATION: 52 WK), 1000, 2000 PPM IN DRINKING WATER FOR 2 WK (STUDY DURATION: 52 WK), Tumor Site: Type of Lesion: LUNG: TUMOR): active; positive
carcinogen call (Species: RAT, Strain/Sex: WISTAR/MALE, Route: ORAL, 1000, 2000 PPM IN DRINKING WATER FOR 2 WK (STUDY DURATION: 52 WK), 1000, 2000 PPM IN DRINKING WATER FOR 2 WK (STUDY DURATION: 52 WK)): inactive; negative
